pKi: −log10 of the molar value. Calls of active or inactive are those of the source. The rule behind the calls is not given here.

In assay [1] the test system is LNCaP. Kind of assay: Growth inhibition of human LNCaP cells at < 10 nM incubated for 72 hrs. The assay is classed as functional, cell-based.
Assay [2] relates to U-937. Nature of the assay: Induction of cell attachment in human U-937 cells at 1 nM incubated for 72 hrs relative to control. It is filed as functional.
Assay [3] concerns U-937. Nature of the assay: Growth inhibition of human U-937 cells assessed as reduction in total cell number at 1 nM incubated for 72 hrs. The assay is classed as functional. To be noted: read-out: GI.
Assay [4] concerns U-937. Kind of assay: Induction of cell attachment in human U-937 cells at more than 10 nM incubated for 72 hrs relative to control. The assay is classed as functional.
Assay [5] has as its system U-937. Nature of the assay: Induction of cell attachment in human U-937 cells at 1000 nM incubated for 72 hrs relative to control. It is filed as functional.
For assay [6], the system named is U-937. Kind of assay: Growth inhibition of human U-937 cells assessed as reduction in total cell number at 1000 nM incubated for 72 hrs. The assay is classed as functional, cell-based.
Assay [7] has as its system U-937. Kind of assay: Growth inhibition of human U-937 cells assessed as reduction in total cell number at 1 to 10 nM incubated for 72 hrs. The assay is classed as functional, cell-based. As to conditions: dose 1-10 nM.
Assay [8] has as its system LNCaP. Nature of the assay: Growth inhibition of human LNCaP cells at 1.5 uM incubated for 72 hrs. The assay is classed as functional, cell-based.
The target of assay [9] is Protein kinase C delta type (Homo sapiens, UniProt Q05655). Nature of the assay: Binding affinity to PKCdelta (unknown origin) assessed as inhibition constant.
Assay [10] concerns U-937. Nature of the assay: Induction of cell attachment in human U-937 cells at 1 to 100 nM incubated for 72 hrs relative to control. The assay is classed as functional. To be noted: dose 1-100 nM.
For assay [11], the system named is LNCaP. Kind of assay: Growth inhibition of human LNCaP cells at 5 to 1500 nM incubated for 72 hrs. It is filed as functional, cell-based. To be noted: dose 5-1500 nM.
Assay [12] deals with U-937. Nature of the assay: Induction of cell attachment in human U-937 cells at 1 to 100 nM incubated for 72 hrs. It is filed as functional, cell-based. To be noted: dose 1-100 nM.
For assay [13], the system named is U-937. Nature of the assay: Induction of cell attachment in human U-937 cells at 100 nM incubated for 72 hrs. The assay is classed as functional, cell-based.
Assay [14] relates to U-937. Kind of assay: Growth inhibition of human U-937 cells assessed as reduction in total cell number at 100 nM incubated for 72 hrs. As to conditions: read-out: GI. The assay is classed as functional.
Assay [15] relates to U-937. Kind of assay: Induction of cell attachment in human U-937 cells at 100 nM incubated for 72 hrs relative to control. It is filed as functional.

Protein kinase C delta type, sequence (Q05655 whole entry): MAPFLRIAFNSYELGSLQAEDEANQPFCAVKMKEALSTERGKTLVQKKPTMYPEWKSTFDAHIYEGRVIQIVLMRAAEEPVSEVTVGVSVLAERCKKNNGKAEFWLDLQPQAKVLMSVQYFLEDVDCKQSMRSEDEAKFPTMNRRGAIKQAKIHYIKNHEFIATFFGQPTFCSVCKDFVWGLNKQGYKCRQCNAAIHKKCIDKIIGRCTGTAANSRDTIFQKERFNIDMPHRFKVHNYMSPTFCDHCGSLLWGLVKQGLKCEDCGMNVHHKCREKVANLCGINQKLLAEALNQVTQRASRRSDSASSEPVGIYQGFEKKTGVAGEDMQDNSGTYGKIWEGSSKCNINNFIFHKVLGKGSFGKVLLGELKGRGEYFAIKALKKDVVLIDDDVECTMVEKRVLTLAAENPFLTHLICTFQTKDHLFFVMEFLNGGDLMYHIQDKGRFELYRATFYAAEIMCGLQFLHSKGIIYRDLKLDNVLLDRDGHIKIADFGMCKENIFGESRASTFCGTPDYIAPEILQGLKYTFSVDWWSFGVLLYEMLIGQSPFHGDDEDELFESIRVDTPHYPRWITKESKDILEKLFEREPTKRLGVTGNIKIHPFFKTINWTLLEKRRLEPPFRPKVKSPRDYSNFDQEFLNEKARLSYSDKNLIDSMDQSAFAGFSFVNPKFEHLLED

For the molecule `CCCCCCCCCCCCCC(=O)O[C@H]1[C@H](C)[C@]2(O)[C@H](C=C(CO)C[C@@]3(O)C(=O)C(C)=C[C@H]23)[C@H]2C(C)(C)[C@@]12OC(C)=O`, in the assay on LNCaP [1], the “growth inhibition (GI)” value was “Active”. In addition, the Activity with U-937 [2] is given as 85.4%. For the same molecule, the inhibition of growth at 0.001 µM in the assay with U-937 [3] was found to be 21.5%.

Molecule `C=CC(C)(C)c1ccc2c3c(c[nH]c13)C[C@@H](CO)NC(=O)[C@H](C(C)C)N2C` [PENDOLMYCIN] came in with an Activity in the assay with U-937 [4] above 60%.

In turn, `CCC/C=C/C=C/C(=O)O[C@H]1/C(=C/C(=O)OC)C[C@H]2C[C@H]([C@@H](C)O)OC(=O)C[C@H](O)C[C@@H]3C[C@H](OC(C)=O)C(C)(C)[C@](O)(C[C@@H]4C/C(=C/C(=O)OC)C[C@H](/C=C/C(C)(C)[C@]1(O)O2)O4)O3` [BRYOSTATIN 1] registered an Activity in the assay on U-937 [5] of 1.8%. Further, in the assay on U-937 [6], the “growth inhibition (GI)” value was “Active”. Moreover, the “growth inhibition (GI)” value in the assay on U-937 [7] and with LNCaP [8] was “inactive” each time.

What is called pKi is the negative decadic logarithm of the Ki, by convention in mol/L. As to `CC(C)[C@H]1C(=O)N[C@H](CO)Cc2cn(C(C)C)c3cccc(c23)N1C`, in [9], the pKi is 7.49. Further, the figures for the Activity in the assay with U-937 [10] and with U-937 [5] were below 2% and 6.5%, respectively. In addition, the “growth inhibition (GI)” value in the assay with LNCaP [11] was “Active”. For the same molecule, the result with U-937 [12] was inactive. In the assay on U-937 [13], the result was Active.

`C=C[C@@](C)(CCC=C(C)C)c1ccc2c3c(c[nH]c13)C[C@@H](CO)NC(=O)[C@H](C(C)C)N2C` displayed an Activity in the assay on U-937 [4] above 60%.

`CC(C)[C@H]1C(=O)N[C@H](CO)Cc2c[nH]c3cccc(c23)N1C` [INDOLACTUM]: the inhibition of growth at 0.1 µM in the assay on U-937 [14] came to 25.7%. Moreover, the results for the Activity with U-937 [5] and with U-937 [15] were 70.3% and 44.2%, respectively.

Turning to `CC(=O)n1cc2c3c(cccc31)N(C)[C@@H](C(C)C)C(=O)N[C@H](CO)C2`, the pKi in assay [9] was 7.03. Moreover, in the assay on U-937 [10], the Activity is given as below 2%. For the same molecule, the “growth inhibition (GI)” value in the assay on LNCaP [11] was “Active”. Further, the result with U-937 [12] was inactive. Besides, the outcome in the assay on U-937 [13] was Active.
